Results from PubChem BioAssay AID2060495 (Molecular Pharmacology Branch, DTP, NCI, 2025).

Test system: 521955-158-R2-J5-PDC complex spheroid viability
Test: Anticancer human tumor 521955-158-R2-J5-PDC patient-derived pancreatic carcinoma cell line growth inhibition [GQUAD]
Conditions: for IC50: curve of first compound; for viability, T/C: stronger effect = lower value
From the text: DNA G-quadruplex Stabilizer Agents in Combinations in Complex Spheroids
A high-throughput screen of multi-cell type tumor spheroids was designed to identify active combinations of DNA G-quadruplex stabilizer agents and targeted small molecules. Complex spheroids include a stromal component modeled by human endothelial cells (HUVEC) and fibroblasts modeled by human mesenchymal stem cells (MSCs). The concentration ranges selected for each drug and investigational agent were based upon clinically achievable concentrations if the clinical Cmax of the agent was known.
Compounds. The drugs and investigational agents: pidnarulex (CX-5461; NSC782164), APTO-253 (NSC789042), BRACO-19 (NSC847499), peposertib (NSC802822), ceralasertib (NSC780249), elimusertib (NSC800525), camonsertib (NSC841442), AZD-1390 (NSC803789), olaparib (NSC753686), talazoparib (NSC767125), ART-558 (NSC835418), sotorasib (NSC818433), MRTX-1133 (NSC836407), SN-38 (NSC673596), topotecan (NSC609699), etoposide (NSC141540), doxorubicin (NSC123127), gemcitabine (NSC613327), 5-fluorouracil (NSC19893), paclitaxel (NSC125973), vemurafenib (NSC761431), panobinostat (NSC761190), R-306465 (JNJ-16241199; NSC773264), adavosertib (NSC754352), TP-3654 (NSC805149), carboplatin (NSC241240), KSQ-4279 (NSC840948), and staurosporine (NSC755774) were obtained from the National Cancer Institute (NCI) Developmental Therapeutics Program Chemical Repository (34). The FDA-approved anticancer drug set is available from the NCI Developmental Therapeutics Program. […] The stock solutions were prepared in dimethyl sulfoxide (DMSO, Sigma-Aldrich, St. Louis, MO, cat. D2650) at 800-fold the tested concentration and stored at -70 degrees C prior to their use. All drugs and investigational agents were tested over a range starting from a high concentration at or near the clinical Cmax and decreasing in half-log increments. If the clinical Cmax for an agent had not been determined, the highest concentration tested was 10 microM.
2.3 Cell Culture. All cells were maintained in an incubator at 37 degrees C and 5% CO2 with 95% humidity. The PDC lines were cultured according to standard operating procedures established by the NCI PDMR. All PDCs were thawed and cultured in Matrigel-coated flasks prepared with a working solution of 1X Ham's F-12 nutrient mix, without supplementation (Invitrogen, cat. 11765054), 100 U/mL penicillin-streptomycin (Invitrogen, cat. 15140122), and 2.5% Matrigel (Corning Inc., cat. 354248) for the first three passages. The 857933-349-R-J2-PDC line was cultured in 6C/Colon 1B media, which includes advanced DMEM/F-12 (Thermo Fisher Scientific, cat. 12634028), 10 mM HEPES (Thermo Fisher Scientific, cat. 15630080), 1X GlutaMAX supplement (Thermo Fisher Scientific, cat. 35050061), 0.1 mg/mL primocin (InvivoGen, cat. ant-pm-2), 10% defined fetal bovine serum, heat inactivated (HyClone Laboratories Inc., cat. SH30070.03HI), 50% L-WRN conditioned media (ATCC, cat. CRL-3276), 1.25 mM N-Acetyl-L-cysteine (Sigma-Aldrich, cat. A9165), 10 mM nicotinamide (Sigma-Aldrich, cat. N0636), 1X B-27 supplement (Thermo Fisher Scientific, cat. 17504044), 1X N-2 supplement (Thermo Fisher Scientific, cat. 17502048), 10 microM Y-27632 dihydrochloride (Tocris Bioscience, cat. 1254), and 50 ng/mL human EGF recombinant protein (Thermo Fisher Scientific, cat. PHG0311). The 485176-168-R4-J1-PDC line was cultured in Panc media, which includes all 6C/Colon 1B media components plus 100 ng/mL human FGF-10 (Thermo Fisher Scientific, cat. 100-26), 500 nM SB-431542 (Selleckchem, cat. S1067), and gastrin (Tocris, cat. 3006).
[…]
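Also: spheroids exposed to agents for one week before reading.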
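For viability, T/C in this document: 100% = DMSO vehicle control viability.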

How did the IC50 (second compound 0.0316 µM) turn out when `Cc1[nH]c2ccccc2c1CCNCc1ccc(/C=C/C(=O)NO)cc1` + Cc1cnc(CNC(=O)c2c(=O)c3ccc(N4CCCN(C)CC4)nc3n3c2sc2ccccc23)cn1 was run?
The IC50 was 0.0713 µM.

And the IC50 (second compound 0.1 µM)?
Its IC50 is 0.0351 µM.

And the IC50 (second compound 0.316 µM)?
Its IC50 is under 0.000999 µM.

And the IC50 (second compound 1 µM)?
Its IC50 is under 0.000999 µM.

What about the IC50 (second compound 3.16 µM) of the same compound?
The IC50 was under 0.000999 µM.

And the IC50 (second compound 10 µM)?
Its IC50 is under 0.000999 µM.

What about the viability, T/C (second compound 0.0316 µM, first compound 0.000999 µM) of the same compound?
The viability, T/C was 76.2%.

What about the viability, T/C (second compound 0.0316 µM, first compound 0.00316 µM) of the same compound?
The viability, T/C was 66.1%.

What about the viability, T/C (second compound 0.0316 µM, first compound 0.00999 µM) of the same compound?
Its viability, T/C is 92.3%.

And the viability, T/C (second compound 0.0316 µM, first compound 0.0316 µM)?
Its viability, T/C is 75.6%.

What about the viability, T/C (second compound 0.0316 µM, first compound 0.0999 µM) of the same compound?
Its viability, T/C is 39.2%.

And the viability, T/C (second compound 0.0316 µM, first compound 0.316 µM)?
The viability, T/C was 5.94%.

What about the viability, T/C (second compound 0.1 µM, first compound 0.000999 µM) of the same compound?
The viability, T/C was 64.7%.

What about the viability, T/C (second compound 0.1 µM, first compound 0.00316 µM) of the same compound?
The viability, T/C was 57.7%.

What about the viability, T/C (second compound 0.1 µM, first compound 0.00999 µM) of the same compound?
Its viability, T/C is 57.1%.

And the viability, T/C (second compound 0.1 µM, first compound 0.0316 µM)?
Its viability, T/C is 54%.

And the viability, T/C (second compound 0.1 µM, first compound 0.0999 µM)?
Its viability, T/C is 33.2%.

What about the viability, T/C (second compound 0.1 µM, first compound 0.316 µM) of the same compound?
Its viability, T/C is 2.12%.

What about the viability, T/C (second compound 0.316 µM, first compound 0.000999 µM) of the same compound?
The viability, T/C was 26.8%.

And the viability, T/C (second compound 0.316 µM, first compound 0.00316 µM)?
Its viability, T/C is 31.2%.

What about the viability, T/C (second compound 0.316 µM, first compound 0.00999 µM) of the same compound?
Its viability, T/C is 34%.

What about the viability, T/C (second compound 0.316 µM, first compound 0.0316 µM) of the same compound?
Its viability, T/C is 37.1%.

And the viability, T/C (second compound 0.316 µM, first compound 0.0999 µM)?
The viability, T/C was 26.6%.

What about the viability, T/C (second compound 0.316 µM, first compound 0.316 µM) of the same compound?
The viability, T/C was 1.88%.

And the viability, T/C (second compound 1 µM, first compound 0.000999 µM)?
The viability, T/C was 16.8%.

And the viability, T/C (second compound 1 µM, first compound 0.00316 µM)?
The viability, T/C was 21.2%.

What about the viability, T/C (second compound 1 µM, first compound 0.00999 µM) of the same compound?
The viability, T/C was 18.5%.

What about the viability, T/C (second compound 1 µM, first compound 0.0316 µM) of the same compound?
The viability, T/C was 20.1%.

And the viability, T/C (second compound 1 µM, first compound 0.0999 µM)?
Its viability, T/C is 18.6%.

And the viability, T/C (second compound 1 µM, first compound 0.316 µM)?
The viability, T/C was 0.1%.

And the viability, T/C (second compound 3.16 µM, first compound 0.000999 µM)?
Its viability, T/C is 12.1%.

What about the viability, T/C (second compound 3.16 µM, first compound 0.00316 µM) of the same compound?
The viability, T/C was 14.4%.

What about the viability, T/C (second compound 3.16 µM, first compound 0.00999 µM) of the same compound?
Its viability, T/C is 14.7%.

What about the viability, T/C (second compound 3.16 µM, first compound 0.0316 µM) of the same compound?
Its viability, T/C is 13.9%.

And the viability, T/C (second compound 3.16 µM, first compound 0.0999 µM)?
Its viability, T/C is 6.38%.

And the viability, T/C (second compound 3.16 µM, first compound 0.316 µM)?
The viability, T/C was 0.11%.

And the viability, T/C (second compound 10 µM, first compound 0.000999 µM)?
The viability, T/C was 9.65%.

What about the viability, T/C (second compound 10 µM, first compound 0.00316 µM) of the same compound?
The viability, T/C was 11.8%.

What about the viability, T/C (second compound 10 µM, first compound 0.00999 µM) of the same compound?
Its viability, T/C is 14.8%.

And the viability, T/C (second compound 10 µM, first compound 0.0316 µM)?
Its viability, T/C is 13.8%.

What about the viability, T/C (second compound 10 µM, first compound 0.0999 µM) of the same compound?
Its viability, T/C is 5.03%.

And the viability, T/C (second compound 10 µM, first compound 0.316 µM)?
Its viability, T/C is 0.18%.
